How the values were obtained:
[1] = Ascorbate depletion assay, 9,10-PQ-sponsored oxidation, recycling of DHA; conditions: 9,10-PQ model, 200 μM added at 60 minutes
Experimental: (§1) The kinetics of ascorbate oxidation, sponsored by both 1 μM 9,10-PQ and 2 μM copper sulphate (CuSO4), was examined using the ascorbate depletion assay (Kelly et al, Res. Rep. Health Eff. Inst., 163, 3 (2011). 9,10-PQ was employed so that the action of NBMI could be examined in isolation of its chelation properties.
(§2) All experiments were performed in triplicate in UV 96 well flat-bottomed plates (Greiner bio-one) at a final volume of 200 μL. Exposures were initiated by the addition of 20 μL of a concentrated stock of ascorbate (2 mM) into each well containing 160 μL of Chelex-100 resin treated water (containing 10% DMSO), plus either 10 μL of water, CuSO4 stock solution at 4 mM or 9,10-PQ stock solution at 2 mM, and 10 μL of NMBI (4 mM and […]).
(§3) All solutions were prepared in Chelex-100 resin treated water (containing 10% DMSO). This yielded final concentrations in the wells of […], 2 μM CuSO4, or 1 μM 9,10-PQ and between 10 and 200 μM of NBMI.
(§4) Immediately prior to the addition of the ascorbate to each assay well, the plate was pre-incubated for 10 minutes at 37° C. in a plate reader (Spectra Max 190). During the exposure, the plate was maintained at this temperature. After addition of ascorbate, the concentration remaining in each well was monitored every 2 minutes for a period of two hours by measuring the absorbance at 265 nm. The ascorbate concentration was determined with reference to a standard curve, with the rate of ascorbate oxidation determined by performing a linear regression through the initial part of a concentration verses time plot using Microcal Software Limited's OriginLab (version 5.0). This was performed for each of the triplicates and the rate of ascorbate depletion was finally expressed as mean mol s 1×10^−9 depletion of ascorbate±standard deviation.
(§5) For the experiments in which the impact of adding NBMI to the ascorbate was measured, CuSO4 and 9,10-PQ depletion assays were examined later in the time course. The plates were ran with 190 μL only for the first 55-60 minutes, after which they were removed from the plate reader and 10 μL of either the NMBI or the known reducing agent, DTT stock solution, or water was added to each well. The plate was then returned to the plate reader and the absorbance at 265 nm monitored for a further 60 minutes.
(§6) The immediate increase in the measured ascorbate concentrations was determined and is referred to as the ‘jump’, as a measure of immediate recycling capacity. The sustained ‘increase’ over the remaining 60 minutes of the incubation was also determined.

[2] = Ascorbate depletion assay, CuSO4-sponsored oxidation, recycling of DHA; conditions: CuSO4 model, 200 μM added at 60 minutes
Experimental: as §1, §2, §3, §4, §5, §6

[3] = system: IL-6 and IL-8 secretion in A549 cells; assay: Particle-induced secretion of pro-inflammatory cytokines (ELISA) in A549 cells; format: cell-based; conditions: pre-incubation 5 mM NAC (positive control); cell line not specified (A549 and BEAS-2B tested)
Experimental: Secretion of the pro-inflammatory cytokines interleukin (IL)-6, IL-8 (as well as GM-CSF and MCP-1) into cell media in response to particle exposure was measured in A549 and BEAS-2B cells using the following method.
Lung epithelial cells were seeded at 5×10^4 in 24-well plates. After pre-incubation with NBMI, the anti-oxidant compound, N-acetyl-L-cysteine (NAC), which was used as a positive control, or vehicle, for 3 hours the medium was removed.
Fresh media containing various particles (as below) in different concentrations was in a total volume of 0.5 ml for an additional 24 hours. The supernatants were then separated from the cells by centrifugation.
IL-8, IL-6, GM-CSF and MCP-1 were measured in the cell free fluid using the DuoSet ELISA Development kit (R&D Systems, Abingdon, UK) according to manufacturer's protocol.
Exposure to medium only served as negative control. Each experiment was performed twice with 4 replicates.
The effect of pre-incubation with 50 μM NBMI on particle-induced cytokine formation was tested at various concentrations of relevant particles.

Row | sustained 'increase' in ascorbate over remaining 60 minutes [2] [µM] | SMILES | immediate rebound increase in ascorbate [1] [µM] | whether recovery of ascorbate was sustained [1] | immediate 'jump' in ascorbate concentration [2] [µM] | reduction of secretion of inflammatory cytokines [3]
1 | 10.79 ± 2.45 | O[C@H](CS)[C@H](O)CS (racemic) [DTT, dithiothreitol, reference compound] | 5.1 | not sustained | 7.93 ± 6.58 | 
2 |  | CC(=O)N[C@@H](CS)C(=O)O [NAC, N-acetyl-L-cysteine, reference compound] |  |  |  | effective in reducing the secretion of inflammatory cytokines

From US9782368B2, “Use of N,N-bis-2-mercaptoethyl isophthalamide” (EMERAMED LIMITED, priority 2014, dated 2017)
